Measurements reported in PubChem BioAssay AID2060912 (Molecular Pharmacology Branch, DTP, NCI, 2025).

Test system: HUVEC/MSC spheroids viability
Assay: Human HUVEC/MSC cell line growth inhibition [KRAS2];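 for viability, T/C: percent of DMSO vehicle control luminescence so 100% = untreated viability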
Conditions: for IC50: curve of first compound; for viability, T/C: stronger effect = lower value
In short: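 Endothelial cells (HUVEC) plus mesenchymal stem cells, cultured at 37 °C/5% CO2 and assembled into spheroids without cancer cells, served as a stromal control. Drug pairs and single agents spanned half-log ranges anchored to clinical Cmax.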

COC(=O)c1ccc2c(C(=Nc3ccc(N(C)C(=O)CN4CCN(C)CC4)cc3)c3ccccc3)c(O)[nH]c2c1 + C=CC(=O)N1CCN(c2nc(OCC3CCCN3C)nc3c2CCN(c2cccc4cccc(C)c24)C3)CC1CC#N
IC50 (second compound 0.00949 µM): 2.18 µM | IC50 (second compound 0.03 µM): 2.22 µM | IC50 (second compound 0.0949 µM): 2.91 µM | IC50 (second compound 0.3 µM): 2.81 µM | IC50 (second compound 0.949 µM): 1.64 µM | IC50 (second compound 3 µM): 0.894 µM | viability, T/C (second compound 0.00949 µM, first compound 0.0316 µM): 91.3% | viability, T/C (second compound 0.00949 µM, first compound 0.1 µM): 82.5% | viability, T/C (second compound 0.00949 µM, first compound 0.316 µM): 89.5% | viability, T/C (second compound 0.00949 µM, first compound 1 µM): 57.8% | viability, T/C (second compound 0.00949 µM, first compound 3.16 µM): 45.7% | viability, T/C (second compound 0.00949 µM, first compound 10 µM): 0.43% | viability, T/C (second compound 0.03 µM, first compound 0.0316 µM): 81.1% | viability, T/C (second compound 0.03 µM, first compound 0.1 µM): 102% | viability, T/C (second compound 0.03 µM, first compound 0.316 µM): 76.4% | viability, T/C (second compound 0.03 µM, first compound 1 µM): 52.6% | viability, T/C (second compound 0.03 µM, first compound 3.16 µM): 52.6% | viability, T/C (second compound 0.03 µM, first compound 10 µM): 0.35% | viability, T/C (second compound 0.0949 µM, first compound 0.0316 µM): 76% | viability, T/C (second compound 0.0949 µM, first compound 0.1 µM): 78.3% | viability, T/C (second compound 0.0949 µM, first compound 0.316 µM): 93.3% | viability, T/C (second compound 0.0949 µM, first compound 1 µM): 68.1% | viability, T/C (second compound 0.0949 µM, first compound 3.16 µM): 49.2% | viability, T/C (second compound 0.0949 µM, first compound 10 µM): 0.37% | viability, T/C (second compound 0.3 µM, first compound 0.0316 µM): 60.5% | viability, T/C (second compound 0.3 µM, first compound 0.1 µM): 78.7% | viability, T/C (second compound 0.3 µM, first compound 0.316 µM): 78.3% | viability, T/C (second compound 0.3 µM, first compound 1 µM): 70.3% | viability, T/C (second compound 0.3 µM, first compound 3.16 µM): 47.7% | viability, T/C (second compound 0.3 µM, first compound 10 µM): 0.35% | viability, T/C (second compound 0.949 µM, first compound 0.0316 µM): 57.5% | viability, T/C (second compound 0.949 µM, first compound 0.1 µM): 73.2% | viability, T/C (second compound 0.949 µM, first compound 0.316 µM): 91.1% | viability, T/C (second compound 0.949 µM, first compound 1 µM): 55.5% | viability, T/C (second compound 0.949 µM, first compound 3.16 µM): 34.6% | viability, T/C (second compound 0.949 µM, first compound 10 µM): 0.31% | viability, T/C (second compound 3 µM, first compound 0.0316 µM): 65.2% | viability, T/C (second compound 3 µM, first compound 0.1 µM): 96.5% | viability, T/C (second compound 3 µM, first compound 0.316 µM): 84.3% | viability, T/C (second compound 3 µM, first compound 1 µM): 46.6% | viability, T/C (second compound 3 µM, first compound 3.16 µM): 0.43% | viability, T/C (second compound 3 µM, first compound 10 µM): 0.33%
